Test results: patent US20220363673A1, “5-(Thiophen-2-YL)-1 H-Tetrazole Derivative as BCKDK Inhibitors Useful for Treating Various Diseases” (Pfizer Inc., priority 2019, published 2022)

Legend:
[1] = target: T1, human BCKDK (Homo sapiens, UniProt O14874); experiment: In Vitro FRET (TR-FRET) BCKDK activity assay, phosphorylation of BCKDHE1α-E2 fusion substrate; assay type: biochemical; settings: geometric mean, two significant figures; 15 μM ATP
T1 construct: human BCKDK (residues 31-412 of the protein pre-processing); 6xHis (N, cleaved yes); MBP (N, cleaved yes); TEV protease site (ENLYFQG) (N, cleaved yes); made in house; host or cells: BL21(DE3) E. coli, co-expressed with GroEL-GroES
Description: BCKDK protein was generated using a pET vector containing from N- to C-terminus: 6×His, MBP, a TEV protease site (ENLYFQG), a biotin acceptor peptide ([…]), and human BCKDK (residues 31-412 of the protein pre-processing). Protein was co-expressed with GroEL-GroES in BL21(DE3) E. coli in LB media, and protein production was induced with 0.5 mM IPTG and 0.5 mg/mL L-arabinose at an OD600 of 1 and grown for 16 h at 26° C. Bacteria were lysed using a Microfluidizer in 100 mM potassium phosphate pH 7.5, 500 mM NaCl, 0.1 mM EDTA, 1% Tween-20, 0.25% Triton X-100, 10% glycerol, 1 mM DTT, and protease inhibitors. MBP-tagged protein was purified by affinity chromatography using amylose resin, and MBP was removed from BCKDK by TEV protease incubation followed by gel filtration chromatography in 50 mM HEPES pH 7.5, 500 mM NaCl, 300 mM L-Arginine, 2 mM MgCl2, 1 mM DTT, and 10% glycerol.
A pET vector containing E. coli LplA was expressed in BL21(DE3) E. coli in LB media, and protein production was induced with 0.75 mM IPTG at an OD600 of 1 and grown for 16 h at 30° C. Bacteria were lysed using a Microfluidizer in 50 mM sodium phosphate buffer pH 7.5, 350 mM NaCl, 1.5 mM MgCl2, and 1 mM DTT. LplA protein was precipitated from clarified lysate with 1 M ammonium sulfate and further purified by gel filtration chromatography in 50 mM sodium phosphate pH 7.5, 350 mM NaCl, 1.5 mM MgCl2, 1 mM DTT, and 10% glycerol.
The BCKDHE1α-E2 fusion substrate was cloned into a pET vector and contained from N- to C-terminus: the lipoyl binding domain of E2 (residues 62-160 pre-processing), a TEV protease site (LENLYFQG), residues 331-345 (pre-processing) from E1α, and 6×His (Tso, S. C. et al., J Biol Chem 2014, 289 (30), 20583-20593). The fusion substrate was expressed in BL21(DE3) E. coli in LB media, and protein production was induced with 0.75 mM IPTG at an OD600 of 1 and grown for 16 h at 30° C. Bacteria were lysed using a Microfluidizer in 50 mM sodium phosphate pH 7.5, 350 mM NaCl, 10 mM imidazole, 10% glycerol, 1 mM DTT, and protease inhibitors. […] For lipoylation, fusion substrate was incubated with LplA at a 10:1 (substrate:LplA) ratio in 20 mM sodium phosphate pH 7.4, 6 mM MgCl2, 4 mM ATP, 2 mM DTT, 3 mM DL-6,8-thioctic acid at 37° C. The reaction was monitored using an Agilent 6530 Q-TOF coupled to an Agilent 1290 UPLC. The final lipoylated fusion substrate was purified by gel filtration chromatography in 50 mM HEPES pH 7.5, 350 mM NaCl, 1.5 mM MgCl2, 1 mM DTT, 10% glycerol.
BCKDK activity was monitored by phosphorylation of a HIS-tagged fusion BCKDHE1α-E2 substrate protein as described above and was detected using a time resolved-fluorescence resonance energy transfer (TR-FRET) assay system. Compounds were spotted into a 384 well plate, and purified human BCKDK protein was added to the plated compound. After incubation, the LBD-linker-E1 phosphorylation sequence was added in the presence of 15 μM ATP. The reaction was terminated with EDTA. Phosphorylated substrate was recognized by the addition of rabbit anti-E1 phospho Ser293 antibodies (Bethyl Laboratories—A304-672A), and the TR-FRET signal was developed by addition of anti-HIS donor molecules (Europium; Perkin Elmer—AD0205, AD0110, AD0111) and anti-Rabbit acceptor molecules (Ulight; Perkin Elmer—TRF502D, TRF502M, TRF502R). Recognition of phosphorylated E1 brought donor and acceptor molecules into close proximity, and excitation at 320 nm caused energy transfer from the Europium donor to the Ulight acceptor dye, which in turn generated light at 665 nm. Signal intensity was proportional to the level of BCKDK-mediated substrate phosphorylation. Reactions were normalized to zero percent effect with DMSO and one hundred percent effect with 600 μM Radicicol, a known BCKDK inhibitor. IC50 curves were generated using ABASE software (IDBS, Boston Mass.).

[2] = system: Mice fed 60% high fat diet; experiment: Diabetic Animal Model: fasting glucose and oral glucose tolerance test; assay type: in vivo; settings: for fasting plasma glucose levels: mean±SEM, vehicle 185±18; for Area under the curve for the glucose tolerance test as percent of vehicle treated group: 1 g/kg dextrose, vehicle 100.0±7
Description: Mice fed 60% high fat diet (Research Diets 12492) were dosed PO with Example 1 for one day, fasted overnight, and blood glucose was measured with an alpha track glucometer. The animals were dosed again PO with Example 1 the next morning, and one hour later, blood glucose was measured again immediately using an alpha track glucometer (Zoetis, Parsippany, N.J.) to assess fasting glucose levels prior to oral gavage of 1 g/kg dextrose. Blood glucose was measured 15, 30, 60, and 120 minutes after the gavage, and the data were plotted and analyzed as area under the curve using GraphPad Prism 8.0 (GraphPad Software, La Jolla, Calif.). For animals that were dosed with vehicle or Example 1 as above, mean±SEM fasting plasma glucose levels were 185±18 (vehicle, n=7), 194±14 (3 mg/kg, n=9), 160±11 (10 mg/kg, n=10), 136±9 mg/dL (30 mg/kg, n=9). Area under the curve for the glucose tolerance test as percent of vehicle treated group was 100.0±7 (vehicle, n=7), 106±9 (3 mg/kg, n=9), 99±2 (10 mg/kg, n=10), 72±4 (30 mg/kg, n=9).

[3] = system: phosphorylation of S293 BCKDH; experiment: Phospho BCKDHA AlphaLISA in human skeletal myocytes; assay type: cell-based; settings: 1 h, 60 minutes, maximal effect relative to BT2
Description: Prior to conducting the assay, BCKDH antibodies (Bethyl A303-790A) were biotinylated using the ChromaLink™ One-Shot Antibody Biotinylation Kit B-9007-009K and phospho Ser293 BCKDHA antibodies (Bethyl A304-672A) were directly conjugated to AlphaLISA Acceptor Beads (custom conjugation performed by Perkin Elmer's Lance/Delfia Custom Services, Boston Mass.). Human skeletal myocytes (Gibco A11440) were plated in a 384 well plate at a density of 7500 live cells/well and grown in skeletal muscle growth media containing the media supplement and chick embryo extract (Promocell C-23060 and C-23160, MP92850145). After overnight incubation, media was removed, and BCKDK inhibitors were added in assay media (growth media diluted 10-fold in PBS). After 60 minutes, the media was removed, the cells were washed with PBS and lysed in 10 μL of buffer (Cell Signaling #9803) containing 2 nM biotinylated total BCKDH antibodies. Samples were incubated for 60 minutes, and 5 μL of AlphaLISA acceptor beads conjugated with phospho-S293 BCKDH antibodies were added 1× Alpha buffer. […] Fluorescence was emitted when the phospho and total BCKDH antibodies were within proximity, signifying phosphorylation of S293 BCKDH. Fluorescence was monitored on the Envision plate reader. The zero percent effect was determined from DMSO treatment and the maximal effect was assessed relative to the BCKDK inhibitor BT2. […]

[4] = system: Dahl salt sensitive male rats; experiment: Heart Failure Rat Model, high salt diet; assay type: in vivo
Description: Dahl salt sensitive male rats (Charles River strain SS/JrHsdMcwiCrl) were fed control diet or 6% high salt diet (iD03121701-AIN-76a rodent diet with added 6% NaCl) for 21 weeks in total. At week 5, the high salt diet-fed rats were dosed PO with 100 mg/kg BT2 or vehicle once daily for the last 16 weeks of study. Echocardiography was performed at week 18 (myocardial performance index (MPI): control diet 0.567±0.034, high salt+vehicle 0.810±0.039, high salt+BT2 0.660±0.030; Isovolumic relaxation time (IVRT): control diet 23.154±0.60 ms, high salt+vehicle 36.507±2.20 ms, high salt+BT2 31.605±1.78 ms; Intraventricular septal thickness at diastole (IVDd): control 2.03±0.088 mm, high salt+vehicle 2.877±0.110 mm, high salt+BT2 2.489±0.089 mm). NT-pro-BNP (MSD K153JKD; control […], high salt+vehicle 1003.0±200.8 μg/mL, high salt+BT2 503.4±84.96 μg/mL), and proANP (MSD K153MBD; control 33.50±5.4 ng/mL, high salt 65.19±8.3 ng/mL, high salt+BT2 38.81±7.0 ng/mL) levels were measured in plasma using MSD assays at the terminal time point. Heart weights were measured at euthanasia and normalized to tibia length (heart/tibia control 0.033±0.001 g/mm; high salt+vehicle 0.042±0.001 g/mm, high salt+BT2 0.038±0.001 g/mm).

| SMILES | IC50 [1] | fasting plasma glucose levels ([2]; 3 mg/kg PO, n=9) | Area under the curve for the glucose tolerance test as percent of vehicle treated group ([2]; 3 mg/kg PO, n=9) | fasting plasma glucose levels ([2]; 10 mg/kg PO, n=10) | Area under the curve for the glucose tolerance test as percent of vehicle treated group ([2]; 10 mg/kg PO, n=10) | fasting plasma glucose levels ([2]; 30 mg/kg PO, n=9) | Area under the curve for the glucose tolerance test as percent of vehicle treated group ([2]; 30 mg/kg PO, n=9) | IC50 [3] | Heart weight normalized to tibia length (heart/tibia) ([4]; at euthanasia, 100 mg/kg PO once daily, control 0.033±0.001, high salt+vehicle 0.042±0.001) | Intraventricular septal thickness at diastole (IVDd) ([4]; echocardiography week 18, 100 mg/kg PO once daily, control 2.03±0.088, high salt+vehicle 2.877±0.110) | myocardial performance index (MPI) ([4]; echocardiography week 18, 100 mg/kg PO once daily, control diet 0.567±0.034, high salt+vehicle 0.810±0.039) | Isovolumic relaxation time (IVRT) ([4]; echocardiography week 18, 100 mg/kg PO once daily, control diet 23.154±0.60, high salt+vehicle 36.507±2.20) | proANP level in plasma ([4]; terminal time point, 100 mg/kg PO once daily, control 33.50±5.4, high salt 65.19±8.3) |
| --- | --- | --- | --- | --- | --- | --- | --- | --- | --- | --- | --- | --- | --- |
| Cc1c(Br)csc1-c1nnn[nH]1 [Example 1, 5-(4-Bromo-3-methylthiophen-2-yl)-1H-tetrazole] | 1.9 µM | 194 ± 14 mg/dL | 106±9% of vehicle treated group | 160 ± 11 mg/dL | 99±2% of vehicle treated group | 136 ± 9 mg/dL | 72±4% of vehicle treated group | 18 ± 2.3 µM | – | – | – | – | – |
| O=C(O)c1sc2cc(Cl)ccc2c1Cl [BT2] | – | – | – | – | – | – | – | – | 0.038±0.001 g/mm | 2.489±0.089 mm | 0.660±0.030 | 31.605 ± 1.78 ms | 38.81 ± 7.0 ng/mL |
| Cc1cc(Cl)sc1-c1nnn[nH]1 [Example 9, 5-(5-Chloro-3-methylthiophen-2-yl)-1H-tetrazole] | 1.4 µM | – | – | – | – | – | – | 11 ± 0.87 µM | – | – | – | – | – |
